Results as given in ChEMBL document CHEMBL1131525, “Synthesis and anti-inflammatory activity of chalcone derivatives” (Bioorg Med Chem Lett, 1998).

Assays:
Homo sapiens [1] = species on record: Homo sapiens; test: (§1) […] required for elastase release in stimulated human neutrophils; type: functional; parameters: concentration or dose not given beside the values
Mus musculus [2] = test: In vivo inhibition of compound required to inhibit PGE-2 levels in zymosan treated mouse air pouch at a dose of 100 nmol/pouch; type: functional
[3] = target: T1, Polyunsaturated fatty acid 5-lipoxygenase (Homo sapiens) (UniProt P09917); test: (§2) Inhibitory concentration required against 5-lipoxygenase activity in cytosolic fractions of human neutrophils; conditions: concentration not given here
T1 sequence (whole entry): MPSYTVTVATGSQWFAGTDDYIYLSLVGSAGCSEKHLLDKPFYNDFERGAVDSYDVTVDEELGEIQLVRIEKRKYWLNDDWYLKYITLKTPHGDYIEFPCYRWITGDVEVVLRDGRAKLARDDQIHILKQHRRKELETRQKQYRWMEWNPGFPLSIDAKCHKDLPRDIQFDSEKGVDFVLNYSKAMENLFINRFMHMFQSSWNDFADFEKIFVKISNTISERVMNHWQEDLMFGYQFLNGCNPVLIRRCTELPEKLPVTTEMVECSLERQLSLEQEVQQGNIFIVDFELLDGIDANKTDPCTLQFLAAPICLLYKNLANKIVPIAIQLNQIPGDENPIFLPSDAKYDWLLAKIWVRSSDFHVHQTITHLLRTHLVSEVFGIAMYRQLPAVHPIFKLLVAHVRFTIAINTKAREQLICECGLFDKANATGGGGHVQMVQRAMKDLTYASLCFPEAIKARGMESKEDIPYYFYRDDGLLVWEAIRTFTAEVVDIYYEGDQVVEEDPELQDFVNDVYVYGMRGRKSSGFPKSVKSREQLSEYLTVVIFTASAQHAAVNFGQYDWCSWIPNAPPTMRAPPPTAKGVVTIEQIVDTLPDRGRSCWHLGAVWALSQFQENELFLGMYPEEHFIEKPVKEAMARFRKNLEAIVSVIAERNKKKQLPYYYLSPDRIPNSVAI

Mus musculus [4] = test: In vivo inhibition of compound required to inhibit LTB4 levels in zymosan treated mouse air pouch at a dose of 100 nmol/pouch; type: functional
[5] = target: T2, Prostaglandin G/H synthase 2 (Homo sapiens) (UniProt P35354); test: Inhibition of COX-2 activity in intact human monocytes; type: cell-based; parameters: concentration or dose not given beside the values; conditions: concentration not given here
T2 sequence (whole entry): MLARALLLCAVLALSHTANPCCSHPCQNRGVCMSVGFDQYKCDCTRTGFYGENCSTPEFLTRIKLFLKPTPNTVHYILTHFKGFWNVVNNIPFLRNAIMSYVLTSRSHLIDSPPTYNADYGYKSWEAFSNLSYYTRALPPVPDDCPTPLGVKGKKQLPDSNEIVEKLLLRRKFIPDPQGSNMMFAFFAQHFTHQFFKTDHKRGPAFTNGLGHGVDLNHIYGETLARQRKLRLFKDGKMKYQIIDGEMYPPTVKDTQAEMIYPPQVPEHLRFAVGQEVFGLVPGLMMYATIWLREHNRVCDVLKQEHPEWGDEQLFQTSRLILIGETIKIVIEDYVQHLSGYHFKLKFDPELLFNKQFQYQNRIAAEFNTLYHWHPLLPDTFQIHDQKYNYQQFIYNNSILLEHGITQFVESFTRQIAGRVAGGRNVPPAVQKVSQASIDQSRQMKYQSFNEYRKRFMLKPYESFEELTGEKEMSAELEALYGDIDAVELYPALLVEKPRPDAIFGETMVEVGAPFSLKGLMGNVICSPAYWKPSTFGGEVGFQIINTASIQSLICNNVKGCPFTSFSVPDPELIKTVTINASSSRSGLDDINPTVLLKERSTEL

Mus musculus [6] = test: In vivo inhibition of compound required for migration of neutrophils into the mouse pouch at the dose of 100 nmol/pouch; type: functional
Homo sapiens [7] = species on record: Homo sapiens; test: (§3) Inhibitory concentration required for LTB4 synthesis in stimulated human neutrophils; type: functional
Mus musculus [8] = test: In vivo inhibition of compound required to inhibit TNF-alpha levels in zymosan treated mouse air pouch at a dose of 100 nmol/pouch; type: functional
Homo sapiens [9] = species on record: Homo sapiens; test: as §1; type: functional
Homo sapiens [10] = species on record: Homo sapiens; test: as §3; type: functional, organism-based
[11] = target: T3, Polyunsaturated fatty acid 5-lipoxygenase (Homo sapiens, UniProt P09917); test: as §2
T3 sequence (P09917 whole entry): T1 sequence (whole entry)

[12] = Inhibitory concentration required for scavenging of superoxide anion generated by hypoxanthine / xanthine oxidase system; type: functional
Homo sapiens [13] = species on record: Homo sapiens; test: Inhibitory concentration required for scavenging of superoxide anion generated by stimulated human neutrophils; type: functional
[14] = target: T3, Polyunsaturated fatty acid 5-lipoxygenase; test: Inhibitory concentration required against 5-lipoxygenase activity in intact cells of human neutrophils; type: cell-based

SMILES | Inhibition (Homo sapiens [1]) | Inhibition (Mus musculus [2]) | inhibition [3] | Inhibition (Mus musculus [4]) | inhibition [5] | Inhibition (Mus musculus [6]) | Inhibition (Homo sapiens [7]) | Inhibition (Mus musculus [8]) | IC50 (Homo sapiens [9]) | IC50 (Homo sapiens [10]) | IC50 [11] | IC50 [12] | IC50 (Homo sapiens [13]) | IC50 [14]
COc1ccc(C(=O)/C=C/c2cc3ccccc3nc2Cl)cc1 | 0% | 23.2% | 42.3% | 20.9% | 30% | 20.4% | 30.2% | 0% | – | – | – | – | – | –
COc1ccc(C(=O)/C=C/c2ccc(C(F)(F)F)cc2)c(OC)c1 | 0% | 25.5% | 21.7% | 45.9% | 0% | 0% | 35.4% | 0% | – | – | – | – | – | –
COc1cccc(/C=C/C(=O)c2ccc(Br)cc2)c1OC | – | 62% | – | 40% | 0% | 35.7% | – | 44% | 2.2 µM | 6.7 µM | 6.1 µM | – | – | –
COc1ccc(C(=O)/C=C/c2ccc(N(C)C)cc2)cc1OC | 0% | 75.8% | 37.9% | 41.1% | 0% | 20.6% | 0% | 64.2% | – | – | – | 0.3 µM | 0.1 µM | –
O=C(/C=C/c1ccco1)c1ccc(Cl)c(Cl)c1 | – | 71% | – | 0% | 0% | 47.3% | – | 0% | 5.4 µM | 4.8 µM | 4.1 µM | – | – | –
Cc1coc(C)c1C(=O)/C=C/c1cc2ccccc2nc1Cl | – | 56.8% | – | 19.5% | 0% | 47.1% | 53.5% | 34.4% | 8.4 µM | – | 3.5 µM | – | – | –
COc1cc2cc(/C=C/C(=O)c3ccc(C)cc3)c(Cl)nc2cc1OC | 40.7% | 59.5% | 61% | 15.2% | 0% | 38.6% | – | 11.2% | – | 9.8 µM | – | – | – | –
O=C(/C=C/c1cc2ccccc2nc1Cl)c1cccnc1 | 0% | 69.5% | 30.2% | 30.7% | 46.6% | 53% | 26.4% | 12.1% | – | – | – | – | – | –
COc1cc2cc(/C=C/C(=O)c3ccccc3)c(Cl)nc2cc1OC | 0% | 29.9% | 42% | 0% | 0% | 0% | 42.2% | 35.7% | – | – | – | – | – | –
COc1ccc(C(=O)/C=C/c2cc3ccccc3nc2Cl)c(OC)c1 | 0% | 36.2% | 27.6% | 11.1% | 41.8% | 0% | 10.7% | 52.1% | – | – | – | – | – | –
CCn1c(=O)ccc2cc(COc3cc(F)cc(C4(OC)CCOCC4)c3)ccc21 | – | – | – | – | – | – | – | – | – | – | 0.09 µM | – | – | 0.06 µM
O=C(/C=C/c1cc2ccccc2nc1Cl)c1ccc(F)cc1 | – | 58.3% | – | 18.5% | 36.3% | 36.6% | – | 0% | 3 µM | 6.2 µM | 3.9 µM | – | – | –
O=C(/C=C/c1cc2ccccc2nc1Cl)c1ccc(C(F)(F)F)cc1 | 0% | 46.5% | 32.9% | 13% | 35.6% | 39.7% | 36.9% | 24.5% | – | – | – | – | – | –
COc1cc(/C=C/C(=O)c2cc(OC)c(OC)c(OC)c2)cc(OC)c1OC | 0% | 0% | 14.6% | 27.5% | 0% | 35% | 21.1% | 25.7% | – | – | – | – | – | –
